Assay results reported in US7151105B2, “Inhibitors of Hepatitis C virus RNA-dependent RNA polymerase, and compositions and treatments using the same” (Agouron Pharmaceuticals, Inc., priority 2004, dated 2006).

The compounds below were run against T1, Recombinant HCV polymerase (Hepatitis C virus genotype 1b, UniProt P26663) (assay: biochemical). Conditions: inhibition of polymerase-directed transcription; 30 min at 30° C; 30 nM enzyme; cpm data in triplicate.
T1 construct: Recombinant HCV polymerase was tested for its ability to perform primer/template-directed transcription
Method in brief: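 Primer/template-directed RNA synthesis by 2.5 pmol HCV polymerase on poly(rC)300/biotin-dG12 with 1 μM GTP plus α-32P-GTP, in pH 7.2 Tris buffer with 10 mM MgCl2, for 30 min at 30 °C. Products were filter-captured and counted, with 1% DMSO final. IC50 was fitted from triplicate cpm; percent inhibition was reported where IC50 was impractical.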

T1 sequence (P26663 2420-3010): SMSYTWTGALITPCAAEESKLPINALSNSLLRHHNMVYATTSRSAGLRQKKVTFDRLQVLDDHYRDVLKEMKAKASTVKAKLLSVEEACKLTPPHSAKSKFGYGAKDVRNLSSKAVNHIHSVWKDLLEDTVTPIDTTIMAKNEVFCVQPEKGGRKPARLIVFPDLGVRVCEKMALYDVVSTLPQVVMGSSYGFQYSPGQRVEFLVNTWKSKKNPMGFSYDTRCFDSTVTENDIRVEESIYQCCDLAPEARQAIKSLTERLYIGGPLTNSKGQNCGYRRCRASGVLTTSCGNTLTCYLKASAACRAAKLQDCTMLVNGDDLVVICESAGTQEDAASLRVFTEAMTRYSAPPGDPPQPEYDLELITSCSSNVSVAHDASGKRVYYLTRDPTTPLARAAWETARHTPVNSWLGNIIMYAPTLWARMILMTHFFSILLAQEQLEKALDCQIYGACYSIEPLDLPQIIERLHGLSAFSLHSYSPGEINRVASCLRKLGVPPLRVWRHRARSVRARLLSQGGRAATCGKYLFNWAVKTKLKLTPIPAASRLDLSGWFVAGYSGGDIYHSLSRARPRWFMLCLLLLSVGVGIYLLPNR

SMILES | IC50 [nM]
CCc1cc(CCC2(C3CCCC3)CC(O)=C(Cc3nc4nc(C)cc(C)n4n3)C(=O)O2)c(OC)cc1OC (centres unmarked) [A(24), 6-Cyclopentyl-3-[(5,7-dimethyl[1,2,4]triazolo[1,5-a]pyrimidin-2-yl)methyl]-6-[2-(5-ethyl-2,4-dimethoxyphenyl)ethyl]-4-hydroxy-5,6-dihydro-2H-pyran-2-one] | 14
CCOc1cc(O)c(CC)cc1CCC1(C2CCCC2)CC(O)=C(Cc2nc3ncc(C)cn3n2)C(=O)O1 (centres unmarked) [A(26), 6-Cyclopentyl-6-[2-(2-ethoxy-5-ethyl-4-hydroxyphenyl)ethyl]-4-hydroxy-3-[(6-methyl[1,2,4]triazolo[1,5-a]pyrimidin-2-yl)methyl]-5,6-dihydro-2H-pyran-2-one] | 4
CCc1cc(CCC2(C3CCCC3)CC(O)=C(Cc3nc4nc(C)cc(C)n4n3)C(=O)O2)c(OCC2CC2)cc1O (centres unmarked) [A(32), 6-Cyclopentyl-6-{2-[2-(cyclopropylmethoxy)-5-ethyl-4-hydroxyphenyl]ethyl}-3-[(5,7-dimethyl[1,2,4]triazolo[1,5-a]pyrimidin-2-yl)methyl]-4-hydroxy-5,6-dihydro-2H-pyran-2-one] | 5
CCc1cc(CCC2(C3CCCC3)CC(O)=C(Cc3nc4ncc(C)cn4n3)C(=O)O2)cc(CC)n1 (centres unmarked) [A(36)] | 30
CCCOc1cnc(CC)cc1CCC1(C2CCCC2)CC(O)=C(Cc2nc3nc(C)cc(C)n3n2)C(=O)O1 (centres unmarked) [A(42), 6-Cyclopentyl-3-[(5,7-dimethyl[1,2,4]triazolo[1,5-a]pyrimidin-2-yl)methyl]-6-[2-(2-ethyl-5propoxypyridin-4-yl)ethyl]-4-hydroxy-5,6-dihydro-2H-pyran-2-one] | 4
CCOc1cnc(CC)cc1CCC1(C2CCCC2)CC(O)=C(Cc2nc3ncc(C)cn3n2)C(=O)O1 (centres unmarked) [A(43), 6-Cyclopentyl-6-[2-(5-ethoxy-2-ethylpyridin-4-yl)ethyl]-4-hydroxy-3-[(6-methyl[1,2,4]triazolo[1,5-a]pyrimidin-2-yl)methyl]-5,6-dihydro-2H-pyran-2-one] | 8
CCCOc1cnc(CC)cc1CCC1(C2CCCC2)CC(O)=C(Cc2nc3ncc(C)cn3n2)C(=O)O1 (centres unmarked) [A(46), 6-Cyclopentyl-6-[2-(2-ethyl-5-propoxypyridin-4-yl)ethyl]-4-hydroxy-3-[(6-methyl[1,2,4]triazolo[1,5-a]pyrimidin-2-yl)methyl]-5,6-dihydro-2H-pyran-2-one] | 6
CCCOc1cc(O)c(CC)cc1CCC1(C2CCCC2)CC(O)=C(Cc2nc3ncc(C)cn3n2)C(=O)O1 (centres unmarked) [A(47), 6-Cyclopentyl-6-[2-(5-ethyl-4-hydroxy-2-propoxyphenyl)ethyl]-4-hydroxy-3-[(6-methyl[1,2,4]triazolo[1,5-a]pyrimidin-2-yl)methyl]-5,6-dihydro-2H-pyran-2-one] | 5
Cc1cnc2nc(CC3=C(O)CC(CCc4cc(CC(F)(F)F)nc(CC(F)(F)F)c4)(C4CCCC4)OC3=O)nn2c1 (centres unmarked) [A(48), 6-{2-[2,6-Bis(2,2,2-trifluoroethyl)pyridin-4-yl]ethyl}-6-cyclopentyl-4-hydroxy-3-[(6-methyl[1,2,4]triazolo[1,5-a]pyrimidin-2-yl)methyl]-5,6-dihydro-2H-pyran-2-one] | 23
CCCOc1cc(O)c(CCC2(C3CCCC3)CC(O)=C(Cc3nc4ncc(C)cn4n3)C(=O)O2)cc1CC (centres unmarked) [A(50), 6-Cyclopentyl-6-[2-(5-ethyl-2-hydroxy-4-propoxyphenyl)ethyl]-4-hydroxy-3-[(6-methyl[1,2,4]triazolo[1,5-a]pyrimidin-2-yl)methyl]-5,6-dihydro-2H-pyran-2-one] | 4
CCc1cc(CCC2(C3CCCC3)CC(O)=C(Cc3nc4nc(C)cc(C)n4n3)C(=O)O2)c(OCC2CCC2)cc1O (centres unmarked) [A(60), 6-{2-[2-(Cyclobutylmethoxy)5-ethyl-4-hydroxyphenyl]ethyl}-6-cyclopentyl-3-[(5,7-dimethyl[1,2,4]triazolo[1,5-a]pyrimidin-2-yl)methyl]-4-hydroxy-5,6-dihydro-2H-pyran-2-one] | 3
CS(=O)(=O)c1ccc(CCC2(C3CCCC3)CC(=O)CC(=O)O2)cc1F (centres unmarked) [A(63), 6-Cyclopentyl-6-{2-[3-fluoro-4-(methylsulfonyl)phenyl]ethyl}dihydro-2H-pyran-2,4(3H)-dione] | 18500
O=C1CC(=O)OC(CCc2ccc(S(=O)(=O)C(F)(F)F)cc2)(C2CCCC2)C1 (centres unmarked) [A(66), 6-Cyclopentyl-6-(2-{4[(trifluoromethyl)sulfonyl]phenyl}ethyl)dihydro-2H-pyran-2,4(3H)-dione] | 31000
CCc1cc(CCC2(C3CCCC3)CC(=O)CC(=O)O2)ccc1OCCN(C)C(=O)OC(C)(C)C (centres unmarked) [A(67), tert-Butyl 2-{4-[2-(2-cyclopentyl-4,6-dioxotetrahydro-2H-pyran-2-yl)ethyl]-2-ethylphenoxy}ethyl(methyl)carbamate] | 47000
CCc1cc(CCC2(C3CCCC3)CC(=O)CC(=O)O2)ccc1OCCNC(=O)OC(C)(C)C (centres unmarked) [A(68), tert-Butyl 2-{4-[2-(2-cyclopentyl-4,6-dioxotetrahydro-2H-pyran-2-yl)ethyl]-2-ethylphenoxy}ethylcarbamate] | 12000

Next, values leading:

IC50 [nM] | SMILES
100 | CC(=O)NCc1ccc(CCC2(C3CCCC3)CC(O)=C(Cc3nc4nc(C)cc(C)n4n3)C(=O)O2)cc1F (centres unmarked) [A(25), N-[4-(2-{2-Cyclopentyl-5-[(5,7-dimethyl[1,2,4]triazolo[1,5-a]pyrimidin-2-yl)methyl]-4-hydroxy-6-oxo-3,6dihydro-2H-pyran-2-yl}ethyl)-2-fluorobenzyl]acetamide]
3 | CCOc1cnc(CC)cc1CCC1(C2CCCC2)CC(O)=C(Cc2nc3nc(C)cc(C)n3n2)C(=O)O1 (centres unmarked) [A(27), 6-Cyclopentyl-3-[(5,7-dimethyl[1,2,4]triazolo[1,5-a]pyrimidin-2-yl)methyl]-6-[2-(5-ethoxy-2-ethylpyridin-4-yl)ethyl]-4-hydroxy-5,6-dihydro-2H-pyran-2-one]
2 | Cc1cc(C)n2nc(CC3=C(O)CC(CCc4ccc(O)c(C(F)(F)F)c4)(C4CCCC4)OC3=O)nc2n1 (centres unmarked) [A(28), 6-Cyclopentyl-3-[(5,7-dimethyl[1,2,4]triazolo[1,5-a]pyrimidin-2-yl)methyl]-4-hydroxy-6-{2-[4-hydroxy-3-(trifluoromethyl)phenyl]ethyl}-5,6dihydro-2H-pyran-2-one]
17 | Cc1cc(C)n2nc(CC3=C(O)CC(CCc4ccc(C(C)(C)NS(C)(=O)=O)c(F)c4)(C4CCCC4)OC3=O)nc2n1 (centres unmarked) [A(29), N-{1-[4-(2-{2-cyclopentyl-5-[(5,7-dimethyl[1,2,4]triazolo[1,5-a]pyrimidin-2-yl)methyl]-4-hydroxy-6-oxo-3,6-dihydro-2H-pyran-2-yl}ethyl)-2-fluorophenyl]-1-methylethyl}methanesulfonamide]
7 | Cc1cc(C)n2nc(CC3=C(O)CC(CCc4ccnc(C(C)C)c4)(C4CCCC4)OC3=O)nc2n1 (centres unmarked) [A(33), 6Cyclopentyl-3-[(5,7-dimethyl[1,2,4]triazolo[1,5-a]pyrimidin-2-yl)methyl]-4-hydroxy-6-[2-(2-isopropylpyridin-4-yl)ethyl]-5,6-dihydro-2H-pyran-2-one]
12 | CCc1cc(CCC2(C3CCCC3)CC(O)=C(Cc3nc4nc(C)cc(C)n4n3)C(=O)O2)cc(C(C)C)n1 (centres unmarked) [A(34), 6-Cyclopentyl-3-[(5,7-dimethyl[1,2,4]triazolo[1,5-a]pyrimidin-2-yl)methyl]-6-[2-(2-ethyl-6-isopropylpyridin-4-yl)ethyl]-4-hydroxy-5,6-dihydro-2H-pyran-2-one]
9 | CCc1cc(CCC2(C3CCCC3)CC(O)=C(Cc3nc4nc(C)cc(C)n4n3)C(=O)O2)cc(C)n1 (centres unmarked) [A(35), 6-Cyclopentyl-3-[(5,7-dimethyl[1,2,4]triazolo[1,5-a]pyrimidin-2-yl)methyl]-6-[2-(2-ethyl-6-methylpyridin-4-yl)ethyl]-4-hydroxy-5,6-dihydro-2H-pyran-2-one]
7 | CCCOc1cc(O)c(CCC2(C3CCCC3)CC(O)=C(Cc3nc4nc(C)cc(C)n4n3)C(=O)O2)cc1CC (centres unmarked) [A(49), 6-Cyclopentyl-3-[(5,7-dimethyl[1,2,4]triazolo[1,5-a]pyrimidin-2-yl)methyl]-6-[2-(5-ethyl-2-hydroxy-4-propoxyphenyl)ethyl]-4-hydroxy-5,6-dihydro-2H-pyran-2-one]
3 | CCc1cc(CCC2(C3CCCC3)CC(O)=C(Cc3nc4nc(C)cc(C)n4n3)C(=O)O2)c(OCC(C)C)cc1O (centres unmarked) [A(59)]
140 | CCn1cc(CCC2(C3CCCC3)CC(O)=C(Cc3nc4nc(C)cc(C)n4n3)C(=O)O2)cn1 (centres unmarked) [A(61), 6-Cyclopentyl-3[(5,7-dimethyl[1,2,4]triazolo[1,5-a]pyrimidin-2-yl)methyl]-6-[2-(1-ethyl-1H-pyrazol-4-yl)ethyl]-4-hydroxy-5,6-dihydro-2H-pyran-2-one]
60 | Cc1cc(C)n2nc(CC3=C(O)CC(CCc4cnn(C(C)C)c4)(C4CCCC4)OC3=O)nc2n1 (centres unmarked) [A(62), 6-Cyclopentyl-3-[(5,7-dimethyl[1,2,4]triazolo[1,5-a]pyrimidin-2-yl)methyl]-4-hydroxy-6-[2-(1-isopropyl-1H-pyrazol-4-yl)ethyl]-5,6-dihydro-2H-pyran-2-one]
250 | Cc1cc(C)n2nc(CC3=C(O)CC(CCc4ccc(S(=O)(=O)C(F)(F)F)cc4)(C4CCCC4)OC3=O)nc2n1 (centres unmarked) [A(65)]
15 | CCc1cc(CCC2(C3CCCC3)CC(O)=C(Cc3nc4nc(C)cc(C)n4n3)C(=O)O2)ccc1OCCN(C)C(=O)OC(C)(C)C (centres unmarked) [A(69), tert-Butyl 2-[4-(2-{2-cyclopentyl-5-[(5,7-dimethyl[1,2,4]triazolo[1,5-a]pyrimidin-2-yl)methyl]-4-hydroxy-6-oxo-3,6-dihydro-2H-pyran-2-yl}ethyl)2-ethylphenoxy]ethyl(methyl)carbamate]
14 | CCc1cc(CCC2(C3CCCC3)CC(O)=C(Cc3nc4nc(C)cc(C)n4n3)C(=O)O2)ccc1OCCNC(=O)OC(C)(C)C (centres unmarked) [A(70), tert-Butyl 2-[4-(2-{2-cyclopentyl-5-[(5,7-dimethyl[1,2,4]triazolo[1,5-a]pyrimidin-2-yl)methyl]-4-hydroxy-6-oxo-3,6-dihydro-2H-pyran-2-yl}ethyl)-2-ethylphenoxy]ethylcarbamate]
